# Measured values from US11542497B2, “Method for evaluating multiple different genes of interest” (THE UNIVERSITY OF TOKYO, priority 2017, dated 2023).
# Experiments:
# [1] = tested on: DLD1 BRCA2 (−/−) line with introduced BRCA2 mutations; test: MANO-B method, Clinvar BRCA2 mutations, olaparib 1 μM (Example 8, FIG. 9); format: cell-based
# Experimental: (§1) First, 3 different unique bar code sequences were added (to conduct experiments at n=3) to each of 11 different plasmids including: plasmids having wild-type BRCA2, K2729N mutation (benign), D2723H mutation (pathogenic), and 7 truncate variants in which a stop codon is introduced about every 500 amino acids (K485*, L997*, Q1502*, K1984*, C2535*, W2970*, C3304*); and piggyBac empty vector (System Biosciences, LLC). Accordingly, the total of 33 different plasmids were prepared. DLD1 BRCA2 (−/−) line was transfected with each plasmid and a transposase expression plasmid pCMV-hyPBase (Sanger Institute) in accordance with the manufacturer's protocol. In this way, cells having BRCA genes stably introduced in their genome were prepared.
# (§2) Different cell lines having mutated genes tagged with bar code sequences introduced were mixed in equal numbers. At this time point, genomic DNA was once extracted (Day 0). Here, a PARP inhibitor (olaparib) was given at varied concentrations and then cultured. Genomic DNA was extracted from the cells collected at Day 12 and was used as a template to PCR-amplify each bar code sequence. After that, deep-sequencing was performed with a next-generation sequencer. The effects of each mutation on the drug sensitivity and the cell proliferation potential were assessed from a change in the ratio of bar code read counts between the case of no chemical treatment and the case of chemical treatment.
# Mutations registered at the Clinvar (https://www.ncbi.nlm.nih.gov/clinvar/) (18 kinds of benign mutation, 52 mutations of VUS or with conflicting interpretations, and 8 kinds of malignant mutation) were evaluated by the MANO-B method using the same procedure as of Example 7 (except that olaparib was used at 1 μM). As a result, most of the benign mutations or malignant mutations registered at the Clinvar were determined to be likewise benign or malignant, respectively, by the MANO-B method (data not shown).
# [2] = tested on: DLD1 BRCA2 (−/−) line with introduced BRCA2 variants; test: MANO-B method, olaparib at varied concentrations (Example 7); format: cell-based; settings: for relative read count (no chemical = 1): Day 12, average of n=3
# Experimental: as §1, §2
# The results were normalized while the read count when no chemical was given was set to 1.
# When functional BRCA2 is introduced into cells, homologous recombination-mediated repair function is restored, and thus the sensitivity to the drug, a PARP inhibitor, decreases and the cells become resistant to the inhibitor. By contrast, cells having a function-deficient BRCA2 introduced are sensitive to the PARP inhibitor, so that the relative cell count decreases when the PARP inhibitor is added. Based on such criteria, the function of each mutated BRCA2 was examined. […] Thus, the mutation was determined to be a function-preserving, benign mutation, which is consistent with past reports.
compound,measurement,setting,value
O=C(c1cc(Cc2n[nH]c(=O)c3ccccc23)ccc1F)N1CCN(C(=O)C2CC2)CC1 [olaparib],MANO-B group of VUS / conflicting-interpretation BRCA2 mutations,"[1]; 5 mutants: D2913H, P2639L, S3291C, D23V, and I2664M","impossible-to-determine (the thresholds were set to 0.1 and 0.5 and the mutations were grouped into 3 groups of benign, malignant, and impossible-to-determine mutations)"
same,MANO-B group of VUS / conflicting-interpretation BRCA2 mutations,"[1]; 9 mutants: R2659G, N3124I, L2604P, W31C, E2663K, W2626R, D3073G, G2609D, and P2329L","malignant (the thresholds were set to 0.1 and 0.5 and the mutations were grouped into 3 groups of benign, malignant, and impossible-to-determine mutations)"
same,MANO-B group of VUS / conflicting-interpretation BRCA2 mutations,"[1]; 38 mutants: R2896C, A2643G, S142N, N854S, Y42C, G602V, T3387A, T2412A, E3096K, E2020K, S3319F, V1532F, E747G, S2697N, K2411T, P3054S, Q147R, S445Y, S755C, Y600C, K2075N, V159E, P41L, H595Y, F266L, R3385H, T2337A, I2627V, I1167V, N55S, V208G, P3292L, S1074C, T598A, T2071, R324T, A2911V, E1695V","benign (the thresholds were set to 0.1 and 0.5 and the mutations were grouped into 3 groups of benign, malignant, and impossible-to-determine mutations)"
same,"MANO-B score, highest score of the malignant mutations",[1]; BRCA2 G2724W,0.03839
same,"MANO-B score, lowest score of the benign mutations",[1]; BRCA2 N2436I,0.7386
same,relative read count (no chemical = 1),"[2]; BRCA2 C2535*, olaparib 1 nM",0.94
same,relative read count (no chemical = 1),"[2]; BRCA2 C2535*, olaparib 5 nM",0.78
same,relative read count (no chemical = 1),"[2]; BRCA2 C2535*, olaparib 10 nM",0.77
same,relative read count (no chemical = 1),"[2]; BRCA2 C2535*, olaparib 50 nM",0.4
same,relative read count (no chemical = 1),"[2]; BRCA2 C2535*, olaparib 100 nM",0.27
same,relative read count (no chemical = 1),"[2]; BRCA2 C2535*, olaparib 500 nM",0.08
same,relative read count (no chemical = 1),"[2]; BRCA2 C2535*, olaparib 1 μM",0.05
same,relative read count (no chemical = 1),"[2]; BRCA2 C3304*, olaparib 1 nM",0.98
same,relative read count (no chemical = 1),"[2]; BRCA2 C3304*, olaparib 5 nM",1.14
same,relative read count (no chemical = 1),"[2]; BRCA2 C3304*, olaparib 10 nM",1.17
same,relative read count (no chemical = 1),"[2]; BRCA2 C3304*, olaparib 50 nM",0.94
same,relative read count (no chemical = 1),"[2]; BRCA2 C3304*, olaparib 100 nM",0.69
same,relative read count (no chemical = 1),"[2]; BRCA2 C3304*, olaparib 500 nM",0.3
same,relative read count (no chemical = 1),"[2]; BRCA2 C3304*, olaparib 1 μM",0.29
same,resistance of BRCA2 D2723H mutant to the PARP inhibitor,[2]; BRCA2 D2723H,did not exhibit resistance
same,relative read count (no chemical = 1),"[2]; BRCA2 D2723H, olaparib 1 nM",0.97
same,relative read count (no chemical = 1),"[2]; BRCA2 D2723H, olaparib 5 nM",0.76
same,relative read count (no chemical = 1),"[2]; BRCA2 D2723H, olaparib 10 nM",0.67
same,relative read count (no chemical = 1),"[2]; BRCA2 D2723H, olaparib 50 nM",0.34
same,relative read count (no chemical = 1),"[2]; BRCA2 D2723H, olaparib 100 nM",0.18
same,relative read count (no chemical = 1),"[2]; BRCA2 D2723H, olaparib 500 nM",0.07
same,relative read count (no chemical = 1),"[2]; BRCA2 D2723H, olaparib 1 μM",0.07
same,relative read count (no chemical = 1),"[2]; BRCA2 K485*, olaparib 1 nM",0.79
same,relative read count (no chemical = 1),"[2]; BRCA2 K485*, olaparib 5 nM",0.66
same,relative read count (no chemical = 1),"[2]; BRCA2 K485*, olaparib 10 nM",0.54
same,relative read count (no chemical = 1),"[2]; BRCA2 K485*, olaparib 50 nM",0.26
same,relative read count (no chemical = 1),"[2]; BRCA2 K485*, olaparib 100 nM",0.15
same,relative read count (no chemical = 1),"[2]; BRCA2 K485*, olaparib 500 nM",0.06
same,relative read count (no chemical = 1),"[2]; BRCA2 K485*, olaparib 1 μM",0.05
same,relative read count (no chemical = 1),"[2]; BRCA2 K1984*, olaparib 1 nM",0.94
same,relative read count (no chemical = 1),"[2]; BRCA2 K1984*, olaparib 5 nM",0.84
same,relative read count (no chemical = 1),"[2]; BRCA2 K1984*, olaparib 10 nM",0.77
same,relative read count (no chemical = 1),"[2]; BRCA2 K1984*, olaparib 50 nM",0.36
same,relative read count (no chemical = 1),"[2]; BRCA2 K1984*, olaparib 100 nM",0.25
same,relative read count (no chemical = 1),"[2]; BRCA2 K1984*, olaparib 500 nM",0.08
same,relative read count (no chemical = 1),"[2]; BRCA2 K1984*, olaparib 1 μM",0.05
same,resistance of BRCA2 K2729N mutant to the PARP inhibitor compared with the wild-type,[2]; BRCA2 K2729N,substantially the same resistance
same,relative read count (no chemical = 1),"[2]; BRCA2 K2729N, olaparib 1 nM",1.08
same,relative read count (no chemical = 1),"[2]; BRCA2 K2729N, olaparib 5 nM",1.58
same,relative read count (no chemical = 1),"[2]; BRCA2 K2729N, olaparib 10 nM",1.36
same,relative read count (no chemical = 1),"[2]; BRCA2 K2729N, olaparib 50 nM",1.74
same,relative read count (no chemical = 1),"[2]; BRCA2 K2729N, olaparib 100 nM",2.31
same,relative read count (no chemical = 1),"[2]; BRCA2 K2729N, olaparib 500 nM",4.76
same,relative read count (no chemical = 1),"[2]; BRCA2 K2729N, olaparib 1 μM",3.72
same,relative read count (no chemical = 1),"[2]; BRCA2 L997*, olaparib 1 nM",0.85
same,relative read count (no chemical = 1),"[2]; BRCA2 L997*, olaparib 5 nM",0.71
same,relative read count (no chemical = 1),"[2]; BRCA2 L997*, olaparib 10 nM",0.54
same,relative read count (no chemical = 1),"[2]; BRCA2 L997*, olaparib 50 nM",0.24
same,relative read count (no chemical = 1),"[2]; BRCA2 L997*, olaparib 100 nM",0.13
same,relative read count (no chemical = 1),"[2]; BRCA2 L997*, olaparib 500 nM",0.06
same,relative read count (no chemical = 1),"[2]; BRCA2 L997*, olaparib 1 μM",0.07
same,relative read count (no chemical = 1),"[2]; BRCA2 Q1502*, olaparib 1 nM",1
same,relative read count (no chemical = 1),"[2]; BRCA2 Q1502*, olaparib 5 nM",0.88
same,relative read count (no chemical = 1),"[2]; BRCA2 Q1502*, olaparib 10 nM",0.78
same,relative read count (no chemical = 1),"[2]; BRCA2 Q1502*, olaparib 50 nM",0.43
same,relative read count (no chemical = 1),"[2]; BRCA2 Q1502*, olaparib 100 nM",0.24
same,relative read count (no chemical = 1),"[2]; BRCA2 Q1502*, olaparib 500 nM",0.12
same,relative read count (no chemical = 1),"[2]; BRCA2 Q1502*, olaparib 1 μM",0.07
same,relative read count (no chemical = 1),"[2]; BRCA2 W2970*, olaparib 1 nM",0.97
same,relative read count (no chemical = 1),"[2]; BRCA2 W2970*, olaparib 5 nM",0.93
same,relative read count (no chemical = 1),"[2]; BRCA2 W2970*, olaparib 10 nM",0.75
same,relative read count (no chemical = 1),"[2]; BRCA2 W2970*, olaparib 50 nM",0.45
same,relative read count (no chemical = 1),"[2]; BRCA2 W2970*, olaparib 100 nM",0.22
same,relative read count (no chemical = 1),"[2]; BRCA2 W2970*, olaparib 500 nM",0.09
same,relative read count (no chemical = 1),"[2]; BRCA2 W2970*, olaparib 1 μM",0.07
same,relative read count (no chemical = 1),"[2]; BRCA2 wild type, olaparib 1 nM",1.22
same,relative read count (no chemical = 1),"[2]; BRCA2 wild type, olaparib 5 nM",1.52
same,relative read count (no chemical = 1),"[2]; BRCA2 wild type, olaparib 10 nM",1.92
same,relative read count (no chemical = 1),"[2]; BRCA2 wild type, olaparib 50 nM",3.19
same,relative read count (no chemical = 1),"[2]; BRCA2 wild type, olaparib 100 nM",3.82
same,relative read count (no chemical = 1),"[2]; BRCA2 wild type, olaparib 500 nM",4.2
same,relative read count (no chemical = 1),"[2]; BRCA2 wild type, olaparib 1 μM",4.42
same,relative read count (no chemical = 1),"[2]; Empty vector, olaparib 1 nM",0.98
same,relative read count (no chemical = 1),"[2]; Empty vector, olaparib 5 nM",0.82
same,relative read count (no chemical = 1),"[2]; Empty vector, olaparib 10 nM",0.69
same,relative read count (no chemical = 1),"[2]; Empty vector, olaparib 50 nM",0.38
same,relative read count (no chemical = 1),"[2]; Empty vector, olaparib 100 nM",0.21
same,relative read count (no chemical = 1),"[2]; Empty vector, olaparib 500 nM",0.07
same,relative read count (no chemical = 1),"[2]; Empty vector, olaparib 1 μM",0.05
